According to US10219516B2, “Molecules having pesticidal utility, and intermediates, compositions, and processes, related thereto” (priority 2015, dated 2019):

Assays:
Format in all cases: in vivo
[1] = system: Cabbage Looper (Trichoplusia ni, TRIPNI); assay: Bioassay on Cabbage Looper (CL), 128-well diet tray assay; conditions: Trichoplusia ni; Cabbage Looper, 128-well diet tray assay; read-out: CL rating
How it was run: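 Percent mortality, averaged across eight replicate wells, was scored after five to seven days at 25° C. under a 14:10 light-dark cycle. Each well held one to five second instar larvae on artificial diet treated at 50 μg/cm^2 with compound from 90:10 acetone-water, allowed to dry before infestation.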

[2] = system: Beet Armyworm (Spodoptera exigua, LAPHEG); assay: Bioassay on Beet Armyworm (BAW), 128-well diet tray assay; conditions: Beet Armyworm, 128-well diet tray assay, read-out: BAW rating
How it was run: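 Diet in each of eight wells received 50 μg/cm^2 of test molecule (90:10 acetone-water, dried), then one to five second-instar larvae were added. Mortality (%) was scored after five to seven days at 25° C. under 14:10 light-dark and averaged across the wells.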

[3] = system: Yellow Fever Mosquito (Aedes aegypti, AEDSAE); assay: Bioassay on Yellow Fever Mosquito (YFM), 96-well plate larval assay; conditions: Yellow Fever Mosquito, 96-well plate larval assay
How it was run: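 Each well was scored for mortality after 3 days at room temperature under a non-evaporative lid. Test molecules came from DMSO masters (4000 ppm stock) diluted with water/acetone 90:10 and dispensed into six replicate plates, which were then infested with roughly 1-day-old larvae in liver-powder water.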

SMILES	pest or weed control at 50 µg/cm2 [1] [%]	pest or weed control at 50 µg/cm2 [2] [%]	YFM rating [3]
COc1ccc(NC(=O)c2cc(NC(=O)[C@H]3[C@H](c4cc(Cl)cc(Cl)c4)C3(Cl)Cl)ccc2Cl)cn1 (relative stereo) [F550, 2-Chloro-5-(trans-2,2-dichloro-3-(3,5-dichlorophenyl)cyclopropane-1-carboxamido)-N-(6-methoxypyridin-3-yl)benzamide]	50 to 100	50 to 100	A (80-100)
COc1ccc(NC(=O)c2cc(NC(=O)[C@H]3[C@H](c4ccc(F)c(Cl)c4)C3(Cl)Cl)ccc2Cl)cn1 (relative stereo) [F551, 2-Chloro-5-(trans-2,2-dichloro-3-(3-chloro-4-fluorophenyl)cyclopropane-1-carboxamido)-N-(6-methoxypyridin-3-yl)benzamide]	50 to 100	50 to 100	A (80-100)
COc1ccc(NC(=O)c2cc(NC(=O)[C@H]3[C@H](c4cc(Cl)cc(Cl)c4)C3(Cl)Cl)ccc2Cl)c(Cl)n1 (relative stereo) [F552, 2-Chloro-N-(2-chloro-6-methoxypyridin-3-yl)-5-(trans-2,2-dichloro-3-(3,5-dichlorophenyl)cyclopropane-1-carboxamido)benzamide]	50 to 100	50 to 100	A (80-100)
COc1ccc(NC(=O)c2cc(NC(=O)[C@H]3[C@H](c4ccc(F)c(Cl)c4)C3(Cl)Cl)ccc2Cl)c(Cl)n1 (relative stereo) [F553, 2-Chloro-N-(2-chloro-6-methoxypyridin-3-yl)-5-(trans-2,2-dichloro-3-(3-chloro-4-fluorophenyl)cyclopropane-1-carboxamido)benzamide]	50 to 100	50 to 100	A (80-100)
O=C(Nc1ccc(F)cc1F)c1cc(NC(=O)[C@H]2[C@H](c3cc(Cl)cc(C(F)F)c3)C2(Cl)Cl)ccc1Cl (relative stereo) [F558, 2-Chloro-5-(trans-2,2-dichloro-3-(3-chloro-5-(difluoromethyl)phenyl)cyclopropane-1-carboxamido)-N-(2,4-difluorophenyl)benzamide]	50 to 100	50 to 100	A (80-100)
O=C(Nc1ccc(F)cc1F)c1cc(NC(=O)[C@H]2[C@H](c3ccc(Cl)c(C(F)F)c3)C2(Cl)Cl)ccc1Cl (relative stereo) [F559, 2-Chloro-5-(trans-2,2-dichloro-3-(4-chloro-3-(difluoromethyl)phenyl)cyclopropane-1-carboxamido)-N-(2,4-difluorophenyl)benzamide]	50 to 100	50 to 100	A (80-100)
O=C(Nc1ccc(F)cc1F)c1cc(NC(=O)[C@H]2[C@H](c3cc(F)cc(C(F)F)c3)C2(Cl)Cl)ccc1Cl (relative stereo) [F560, 2-Chloro-5-(trans-2,2-dichloro-3-(3-(difluoromethyl)-5-fluorophenyl)cyclopropane-1-carboxamido)-N-(2,4-difluorophenyl)benzamide]	50 to 100	50 to 100	A (80-100)
O=C(Nc1ccc(F)cc1F)c1cc(NC(=O)[C@H]2[C@H](c3ccc(F)c(C(F)F)c3)C2(Cl)Cl)ccc1Cl (relative stereo) [F561, 2-Chloro-5-(trans-2,2-dichloro-3-(3-(difluoromethyl)-4-fluorophenyl)cyclopropane-1-carboxamido)-N-(2,4-difluorophenyl)benzamide]	50 to 100	50 to 100	A (80-100)
O=C(Nc1ccc(F)cc1F)c1cc(NC(=O)[C@H]2[C@H](c3ccc(C(F)F)c(Cl)c3)C2(Cl)Cl)ccc1Cl (relative stereo) [F562, 2-Chloro-5-(trans-2,2-dichloro-3-(3-chloro-4-(difluoromethyl)phenyl)cyclopropane-1-carboxamido)-N-(2,4-difluorophenyl)benzamide]	50 to 100	50 to 100	A (80-100)
O=C(Nc1ccc(F)cc1F)c1cc(NC(=O)[C@H]2[C@H](c3ccc(C(F)F)c(F)c3)C2(Cl)Cl)ccc1Cl (relative stereo) [F563, 2-Chloro-5-(trans-2,2-dichloro-3-(4-(difluoromethyl)-3-fluorophenyl)cyclopropane-1-carboxamido)-N-(2,4-difluorophenyl)benzamide]	50 to 100	50 to 100	A (80-100)
O=C(Nc1ccc(F)cc1F)c1cc(NC(=O)[C@H]2[C@H](c3cccc(C(F)F)c3)C2(Cl)Cl)ccc1Cl (relative stereo) [F564, 2-Chloro-5-(trans-2,2-dichloro-3-(3-(difluoromethyl)phenyl)cyclopropane-1-carboxamido)-N-(2,4-difluorophenyl)benzamide]	50 to 100	50 to 100	A (80-100)
O=C(Nc1ccc(F)cc1F)c1cc(NC(=O)[C@H]2[C@H](c3ccc(C(F)F)cc3)C2(Cl)Cl)ccc1Cl (relative stereo) [F565, 2-Chloro-5-(trans-2,2-dichloro-3-(4-(difluoromethyl)phenyl)cyclopropane-1-carboxamido)-N-(2,4-difluorophenyl)benzamide]	50 to 100	50 to 100	A (80-100)
C=Cc1c(F)cc([C@H]2[C@H](C(=O)Nc3ccc(Cl)c(C(=O)Nc4ccc(F)cc4F)c3)C2(Cl)Cl)cc1F (relative stereo) [F566, 2-Chloro-5-(trans-2,2-dichloro-3-(3,5-difluoro-4-vinylphenyl)cyclopropane-1-carboxamido)-N-(2,4-difluorophenyl)benzamide]	50 to 100	50 to 100	A (80-100)
Cc1cc(N)ccc1NC(=O)c1cc(NC(=O)[C@H]2[C@H](c3ccc(Cl)c(Cl)c3)C2(Cl)Cl)ccc1Cl (relative stereo) [F574, trans-N-(4-Amino-2-methylphenyl)-2-chloro-5-(2,2-dichloro-3-(3,4-dichlorophenyl)cyclopropane-1-carboxamido)benzamide]	50 to 100	50 to 100	A (80-100)
O=C(Nc1ncc(F)cc1F)c1cc(NC(=O)[C@H]2[C@H](c3ccc(Cl)c(C(F)F)c3)C2(Cl)Cl)ccc1Cl (relative stereo) [F585, 2-Chloro-5-(trans-2,2-dichloro-3-(4-chloro-3-(difluoromethyl)phenyl)cyclopropane-1-carboxamido)-N-(3,5-difluoropyridin-2-yl)benzamide]	50 to 100	50 to 100	A (80-100)
O=C(Nc1ncc(F)cc1F)c1cc(NC(=O)[C@H]2[C@H](c3cc(F)cc(C(F)F)c3)C2(Cl)Cl)ccc1Cl (relative stereo) [F586, 2-Chloro-5-(trans-2,2-dichloro-3-(3-(difluoromethyl)-5-fluorophenyl)cyclopropane-1-carboxamido)-N-(3,5-difluoropyridin-2-yl)benzamide]	50 to 100	50 to 100	A (80-100)
O=C(Nc1ncc(F)cc1F)c1cc(NC(=O)[C@H]2[C@H](c3ccc(F)c(C(F)F)c3)C2(Cl)Cl)ccc1Cl (relative stereo) [F587, 2-Chloro-5-(trans-2,2-dichloro-3-(3-(difluoromethyl)-4-fluorophenyl)cyclopropane-1-carboxamido)-N-(3,5-difluoropyridin-2-yl)benzamide]	50 to 100	50 to 100	A (80-100)
O=C(Nc1ncc(F)cc1F)c1cc(NC(=O)[C@H]2[C@H](c3ccc(C(F)F)c(Cl)c3)C2(Cl)Cl)ccc1Cl (relative stereo) [F588, 2-Chloro-5-(trans-2,2-dichloro-3-(3-chloro-4-(difluoromethyl)phenyl)cyclopropane-1-carboxamido)-N-(3,5-difluoropyridin-2-yl)benzamide]	50 to 100	50 to 100	A (80-100)
O=C(Nc1ncc(F)cc1F)c1cc(NC(=O)[C@H]2[C@H](c3ccc(C(F)F)c(F)c3)C2(Cl)Cl)ccc1Cl (relative stereo) [F589, 2-chloro-5-(trans-2,2-dichloro-3-(4-(difluoromethyl)-3-fluorophenyl)cyclopropane-1-carboxamido)-N-(3,5-difluoropyridin-2-yl)benzamide]	50 to 100	50 to 100	A (80-100)
O=C(Nc1ncc(F)cc1F)c1cc(NC(=O)[C@H]2[C@H](c3cccc(C(F)F)c3)C2(Cl)Cl)ccc1Cl (relative stereo) [F590, 2-Chloro-5-(trans-2,2-dichloro-3-(3-(difluoromethyl)phenyl)cyclopropane-1-carboxamido)-N-(3,5-difluoropyridin-2-yl)benzamide]	50 to 100	50 to 100	A (80-100)
O=C(Nc1ncc(F)cc1F)c1cc(NC(=O)[C@H]2[C@H](c3ccc(C(F)F)cc3)C2(Cl)Cl)ccc1Cl (relative stereo) [F591, 2-Chloro-5-(trans-2,2-dichloro-3-(4-(difluoromethyl)phenyl)cyclopropane-1-carboxamido)-N-(3,5-difluoropyridin-2-yl)benzamide]	50 to 100	50 to 100	A (80-100)
